Data as given in patent publication US20110268794A1, “METHODS AND MATERIALS FOR DELIVERING BILE ACIDS” (priority 2009, published 2011).

Assays:
Type in all cases: in vivo, human
[1] = test system: female IBS-C patients; experiment: Side effects, female IBS-C patients (Example 2)
Experimental: (§1) The following study was performed to evaluate the effects of ileocolonic delivery of sodium chenodeoxycholate (CDC) on gastrointestinal (GI) and colonic transit and bowel function in constipation-predominant irritable bowel syndrome (IBS-C). A double-blind, placebo-controlled study evaluated effects of once-daily CDC for 4 days in 36 female IBS-C patients (mean age 41.80±1.62 y). Patients were randomized to oral placebo, 500 mg or 1000 mg CDC delivered to the ileocolonic region in pH-sensitive, methacrylate-coated capsules. Fasting serum 7α-hydroxy-4-cholesten-3-one (7αC4) was measured to assess for baseline abnormalities in bile acid synthesis. […] Treatment effects were compared by ANCOVA with BMI as a covariate, and each CDC dose against placebo by Dunnett's test.

[2] = test system: healthy volunteers; experiment: Adverse events, healthy volunteers (Example 1); settings: for Percent of participants dizzy, light-headed / Percent of participants with URI / Percent of participants with diarrhea / Percent of participants with gas / Percent of participants with headache / Percent of participants with loose stools / Percent of participants with lower abdo bloating / Percent of participants with lower abdo pain/cramps / Percent of participants with muscle aches / Percent of participants with nausea / Percent of participants with sensation of warmth / Percent of participants with sweating: n=20
Experimental: This was a double-blind, placebo-controlled, randomized study evaluating the effects of sodium chenodeoxycholate (CDC) or placebo orally administered once daily for four days in healthy volunteers. An independent statistician generated the randomization code. Clinical and laboratory study personnel were blinded throughout the study until data were locked and analyzed. Safety monitoring was conducted throughout the study. Three groups (n=20 each) were randomized to oral placebo, 500 mg or 1000 mg CDC daily (in pH-sensitive, methacrylate-coated capsules), each for a period of 4 days.

[3] = test system: female IBS-C patients; experiment: Bowel function by daily questionnaires, female IBS-C patients (Example 2)
Experimental: as §1

[4] = CDC 500 mg once daily 4 days, N = 11, mean ± SEM

Compound: C[C@H](CCC(=O)O)[C@H]1CC[C@H]2[C@@H]3[C@H](O)C[C@@H]4C[C@H](O)CC[C@]4(C)[C@H]3CC[C@]12C [CDC, sodium chenodeoxycholate]
- Safety issues ([1]; 500 mg or 1000 mg once daily 4 days): No safety issues were identified
- Patients with diarrhea ([1]; CDC 500 mg once daily 4 days): 18%
- Patients with lower abdominal cramps/pain ([1]; CDC 500 mg once daily 4 days): 45%
- Patients with diarrhea ([1]; CDC 1000 mg once daily 4 days): 17%
- Patients with lower abdominal cramps/pain ([1]; CDC 1000 mg once daily 4 days): 42%
- Serious adverse events ([2]; 500 mg or 1000 mg once daily 4 days, healthy volunteers): no serious adverse events
- Percent of participants dizzy, light-headed ([2]; CDC 500 mg once daily 4 days): 10%
- Percent of participants with URI ([2]; CDC 500 mg once daily 4 days): 0%
- Percent of participants with diarrhea ([2]; CDC 500 mg once daily 4 days): 40%
- Percent of participants with gas ([2]; CDC 500 mg once daily 4 days): 5%
- Percent of participants with headache ([2]; CDC 500 mg once daily 4 days): 25%
- Percent of participants with loose stools ([2]; CDC 500 mg once daily 4 days): 15%
- Percent of participants with lower abdo bloating ([2]; CDC 500 mg once daily 4 days): 5%
- Percent of participants with lower abdo pain/cramps ([2]; CDC 500 mg once daily 4 days): 15%
- Percent of participants with muscle aches ([2]; CDC 500 mg once daily 4 days): 5%
- Percent of participants with nausea ([2]; CDC 500 mg once daily 4 days): 5%
- Percent of participants with sensation of warmth ([2]; CDC 500 mg once daily 4 days): 5%
- Percent of participants with sweating ([2]; CDC 500 mg once daily 4 days): 5%
- Percent of participants dizzy, light-headed ([2]; CDC 1000 mg once daily 4 days): 5%
- Percent of participants with URI ([2]; CDC 1000 mg once daily 4 days): 10%
- Percent of participants with diarrhea ([2]; CDC 1000 mg once daily 4 days): 75%
- Percent of participants with gas ([2]; CDC 1000 mg once daily 4 days): 5%
- Percent of participants with headache ([2]; CDC 1000 mg once daily 4 days): 25%
- Percent of participants with loose stools ([2]; CDC 1000 mg once daily 4 days): 20%
- Percent of participants with lower abdo bloating ([2]; CDC 1000 mg once daily 4 days): 0%
- Percent of participants with lower abdo pain/cramps ([2]; CDC 1000 mg once daily 4 days): 75%
- Percent of participants with muscle aches ([2]; CDC 1000 mg once daily 4 days): 0%
- Percent of participants with nausea ([2]; CDC 1000 mg once daily 4 days): 20%
- Percent of participants with sensation of warmth ([2]; CDC 1000 mg once daily 4 days): 5%
- Percent of participants with sweating ([2]; CDC 1000 mg once daily 4 days): 5%
- Stool consistency (Bristol Scale) [3, 4]: 3.58 ± 0.33
- Stool frequency per day [3, 4]: 1.22 ± 0.19 per day
- Stool consistency (Bristol Scale) ([3]; CDC 1000 mg once daily 4 days, N = 12, mean ± SEM): 3.47 ± 0.23
